PubChem BioAssay AID248 (DTP/NCI, 2004)
Several values for one entry are separate records, joined by “and”; a condition that tells them apart may be missing. Equal values may be shown once. Toxic doses and inconclusive results are not listed. No stated cut-off is given here; in the data, active means T/C of 150% or more; inactive means T/C below 125%.

Test system: L1210 leukemia ip in BDF1 mice, survival T/C
Test: NCI In Vivo Anticancer Drug Screen. Data for tumor model L1210 Leukemia (intraperitoneal) in B6D2F1 (BDF1) mice
Conditions: endpoint: mean survival time, higher = longer survival
In short: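 Value reflects the ratio of survival in compound-treated mice to survival in vehicle-treated controls, with both groups carrying the same transplanted tumor.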

[1] = dose: 100.0 mg/kg/injection, schedule: Q01DX001 (ip), vehicle: carboxymethylcellulose (CMC)
[2] = dose: 200.0 mg/kg/injection, schedule: Q01DX001 (ip), vehicle: carboxymethylcellulose (CMC)
[3] = dose: 400.0 mg/kg/injection, schedule: Q01DX001 (ip), vehicle: carboxymethylcellulose (CMC)
[4] = dose: 100.0 mg/kg/injection, schedule: Q01DX001 (ip), vehicle: saline
[5] = dose: 200.0 mg/kg/injection, schedule: Q01DX001 (ip), vehicle: saline
[6] = dose: 400.0 mg/kg/injection, schedule: Q01DX001 (ip), vehicle: saline
[7] = dose: 100.0 mg/kg/injection, schedule: Q01DX009 (ip), vehicle: saline with Tween-80
[8] = dose: 100.0 mg/kg/injection, schedule: Q04DX003 (ip), vehicle: Klucel (hydroxypropylcellulose) (HPC)
[9] = dose: 100.0 mg/kg/injection, schedule: Q01DX009 (ip), vehicle: Klucel (hydroxypropylcellulose) (HPC)
[10] = dose: 200.0 mg/kg/injection, schedule: Q01DX009 (ip), vehicle: Klucel (hydroxypropylcellulose) (HPC)
[11] = dose: 100.0 mg/kg/injection, schedule: Q04DX003 (ip), vehicle: saline

Measured: T/C

O=C(O)c1ccccc1Cl.[Ni]
inactive: dose: 25.0 mg/kg/injection, schedule: Q04DX002 (ip), vehicle: Klucel (hydroxypropylcellulose) (HPC) 94 % of control | dose: 50.0 mg/kg/injection, schedule: Q04DX002 (ip), vehicle: Klucel (hydroxypropylcellulose) (HPC) 109 % of control

Nc1ccc2c(c1)C(O)c1cc(N)c(Br)cc1-2 (configuration not stated)
inactive: [1] 103 % of control | [2] 110 % of control | [3] 103 % of control

NCCc1c[nH]c2ccc(O)cc12 (tested in a mixture with another compound)
inactive: dose: 120.0 mg/kg/injection, schedule: Q01DX009 (ip), vehicle: carboxymethylcellulose (CMC) 107 % of control | [3] 108 % of control | dose: 600.0 mg/kg/injection, schedule: Q01DX001 (ip), vehicle: carboxymethylcellulose (CMC) 108 % of control | dose: 600.0 mg/kg/injection, schedule: Q01DX009 (ip), vehicle: carboxymethylcellulose (CMC) 102 % of control | dose: 800.0 mg/kg/injection, schedule: Q01DX001 (ip), vehicle: carboxymethylcellulose (CMC) 114 % of control | dose: 800.0 mg/kg/injection, schedule: Q01DX009 (ip), vehicle: carboxymethylcellulose (CMC) 119 % of control | dose: 1000.0 mg/kg/injection, schedule: Q01DX001 (ip), vehicle: carboxymethylcellulose (CMC) 106 % of control

Oc1ccc(-c2ccccc2)cc1O
inactive: [4] 105 % of control | [5] 109 % of control | [6] 109 % of control

CCCCC(CCC)(CCC)CCN
inactive: dose: 2.0 mg/kg/injection, schedule: Q01DX001 (ip), vehicle: carboxymethylcellulose (CMC) 98 % of control | dose: 2.5 mg/kg/injection, schedule: Q01DX015 (ip), vehicle: carboxymethylcellulose (CMC) 89 % of control | dose: 4.0 mg/kg/injection, schedule: Q01DX001 (ip), vehicle: carboxymethylcellulose (CMC) 103 % of control | dose: 5.0 mg/kg/injection, schedule: Q01DX015 (ip), vehicle: carboxymethylcellulose (CMC) 94 % of control | dose: 8.0 mg/kg/injection, schedule: Q01DX001 (ip), vehicle: carboxymethylcellulose (CMC) 108 % of control | dose: 10.0 mg/kg/injection, schedule: Q01DX015 (ip), vehicle: carboxymethylcellulose (CMC) 93 % of control | dose: 16.0 mg/kg/injection, schedule: Q01DX001 (ip), vehicle: carboxymethylcellulose (CMC) 90 % of control

CC1=NN(c2ccc([N+](=O)[O-])cc2)C(=O)C1[N+](=O)[O-] (configuration not stated) (tested in a mixture with another compound)
inactive: dose: 75.0 mg/kg/injection, schedule: Q01DX001 (ip), vehicle: carboxymethylcellulose (CMC) 101 % of control | dose: 150.0 mg/kg/injection, schedule: Q01DX001 (ip), vehicle: carboxymethylcellulose (CMC) 95 % of control | dose: 300.0 mg/kg/injection, schedule: Q01DX001 (ip), vehicle: carboxymethylcellulose (CMC) 110 % of control

Cc1cc(C)c(N(CC(=O)O)S(=O)(=O)c2ccccc2)c(C)c1Cl
inactive: dose: 50.0 mg/kg/injection, schedule: Q01DX001 (ip), vehicle: Klucel (hydroxypropylcellulose) (HPC) 100 % of control | dose: 100.0 mg/kg/injection, schedule: Q01DX001 (ip), vehicle: Klucel (hydroxypropylcellulose) (HPC) 86 % of control | dose: 200.0 mg/kg/injection, schedule: Q01DX001 (ip), vehicle: Klucel (hydroxypropylcellulose) (HPC) 91 % of control

S=c1[nH]nc2scnn12
inactive: dose: 50.0 mg/kg/injection, schedule: Q01DX001 (ip), vehicle: carboxymethylcellulose (CMC) 94 % of control | [1] 94 % of control | [2] 97 % of control | [3] 94 % of control

NC(=O)c1ccccc1NC(=O)Nc1cccc(F)c1
inactive: dose: 25.0 mg/kg/injection, schedule: Q01DX009 (ip), vehicle: saline with Tween-80 89 % of control | dose: 50.0 mg/kg/injection, schedule: Q01DX009 (ip), vehicle: saline with Tween-80 95 % of control | [7] 104 % of control | dose: 200.0 mg/kg/injection, schedule: Q01DX009 (ip), vehicle: saline with Tween-80 90 % of control | dose: 400.0 mg/kg/injection, schedule: Q01DX009 (ip), vehicle: saline with Tween-80 96 % of control

C=CC(=O)Nc1ccc(Cl)cc1
inactive: dose: 25.0 mg/kg/injection, schedule: Q04DX003 (ip), vehicle: Klucel (hydroxypropylcellulose) (HPC) 98 % of control | dose: 50.0 mg/kg/injection, schedule: Q04DX003 (ip), vehicle: Klucel (hydroxypropylcellulose) (HPC) 96 % of control | [8] 107 % of control and 90 % of control

CCCCN(C)N=Nc1ccc(C(=N)N)cc1
inactive: dose: 5.0 mg/kg/injection, schedule: Q01DX001 (ip), vehicle: carboxymethylcellulose (CMC) 106 % of control | dose: 10.0 mg/kg/injection, schedule: Q01DX001 (ip), vehicle: carboxymethylcellulose (CMC) 100 % of control | dose: 20.0 mg/kg/injection, schedule: Q01DX001 (ip), vehicle: carboxymethylcellulose (CMC) 100 % of control | dose: 40.0 mg/kg/injection, schedule: Q01DX001 (ip), vehicle: carboxymethylcellulose (CMC) 95 % of control | dose: 80.0 mg/kg/injection, schedule: Q01DX001 (ip), vehicle: carboxymethylcellulose (CMC) 101 % of control

Cc1cc2nc(C)c(=O)[nH]c2cc1C
inactive: [9] 95 % of control | [8] 96 % of control | [10] 98 % of control | dose: 200.0 mg/kg/injection, schedule: Q04DX003 (ip), vehicle: Klucel (hydroxypropylcellulose) (HPC) 92 % of control | dose: 400.0 mg/kg/injection, schedule: Q01DX009 (ip), vehicle: Klucel (hydroxypropylcellulose) (HPC) 91 % of control | dose: 400.0 mg/kg/injection, schedule: Q04DX003 (ip), vehicle: Klucel (hydroxypropylcellulose) (HPC) 92 % of control

O=C(O)C(O)(C1CCCCC1)C1CCC2CCC3CCCC1C32 (configuration not stated)
inactive: [7] 87 % of control

CCCCCCCCCCCCCCCCCCCC(=O)CCl
inactive: dose: 100.0 mg/kg/injection, schedule: Q04DX002 (sc), vehicle: olive oil, sesame oil, peanut oil 104 % of control | dose: 200.0 mg/kg/injection, schedule: Q04DX002 (sc), vehicle: olive oil, sesame oil, peanut oil 100 % of control | dose: 400.0 mg/kg/injection, schedule: Q04DX002 (sc), vehicle: olive oil, sesame oil, peanut oil 107 % of control

CCCC(=O)CCN(C)Cc1ccccc1
inactive: [4] 103 % of control

C/C=C1/C(=O)O[C@]23C=C[C@@H]4C(C(=O)OC)=CO[C@H](O[C@@H]12)[C@@H]43
inactive: [4] 104 % of control | [5] 103 % of control | [6] 98 % of control

CC(C)(C)c1ccc(OS(=O)(=O)c2cccc([N+](=O)[O-])c2)cc1
inactive: dose: 100.0 mg/kg/injection, schedule: Q04DX003 (ip), vehicle: saline with Tween-80 104 % of control | dose: 200.0 mg/kg/injection, schedule: Q04DX003 (ip), vehicle: saline with Tween-80 99 % of control | dose: 400.0 mg/kg/injection, schedule: Q04DX003 (ip), vehicle: saline with Tween-80 106 % of control

CC(C)/C([O-])=N\[N+](C)(C)Cc1ccccc1
inactive: [11] 105 % of control | dose: 200.0 mg/kg/injection, schedule: Q04DX003 (ip), vehicle: saline 100 % of control | dose: 400.0 mg/kg/injection, schedule: Q04DX003 (ip), vehicle: saline 98 % of control

Cc1cccc[n+]1CC(=O)c1ccccc1
inactive: [11] 94 % of control

O=c1c2c(oc3c(Cl)cc(Cl)cc13)CCCC2
inactive: dose: 50.0 mg/kg/injection, schedule: Q04DX002 (ip), vehicle: gum acacia 100 % of control | dose: 100.0 mg/kg/injection, schedule: Q04DX002 (ip), vehicle: gum acacia 104 % of control | dose: 200.0 mg/kg/injection, schedule: Q04DX002 (ip), vehicle: gum acacia 104 % of control

Cc1cc(C)c(CC(C)(CO)CO)cc1CC(C)(CO)CO
inactive: [9] 93 % of control | [10] 87 % of control | dose: 300.0 mg/kg/injection, schedule: Q01DX009 (ip), vehicle: Klucel (hydroxypropylcellulose) (HPC) 106 % of control
